{"source": "patent US8426398B2", "about": "(Emory University, priority 2009, dated 2013)", "key": {"tubulin [1]": {"tested_on": "tubulin", "conditions": "cited from earlier work"}, "tubulin [2]": {"tested_on": "tubulin", "assay": "assembly of tubulin subunits into microtubules in vitro (light scattering)", "assay_type": "biochemical", "conditions": "for effect on tubulin polymerization: 25 μM", "method": "(§1) FIG. 5 is a picture showing the fluorescence quenching of tubulin by Targetin. Panel A, quenching of tubulin fluorescence emission by Targetin in a concentration-dependent manner (▪) control, 10 μM (●), 20 μM (▴), 30 μM (▾), 50 μM ( ? ), 75 μM ( ? ) and 100 μM (♦) Panel B, double-reciprocal plot for Targetin binding to tubulin. […] Equivalent amount of solvent DMSO was used as a negative control.\n(§2) However, at a four-fold concentration of Targetin (100 μM), it inhibited the rate and extent of tubulin polymerization by ˜17% (FIG. 5C)."}, "[3]": {"tested_on": "melanoma, glioblastoma, ovarian, breast carcinoma, and prostate cancer cells", "conditions": "many cancer cell types; cited from earlier work"}, "[4]": {"conditions": "oral 300 mg/kg body weight to 600 mg/kg; cited from earlier work"}, "[5]": {"tested_on": "cells expressing green fluorescent protein (GFP)-tagged α-tubulin", "conditions": "30 second time period; cited from earlier work"}, "folate receptor": {"target": "T1, folate receptor (Homo sapiens, UniProt P15328)", "T1 construct": "determined in cultured KB-31 cells (nasopharyngeal epidermal carcinoma cell line) overexpressing the folate receptor using ^3H-folic acid; endogenous in cells; host or cells: KB-31 cells", "T1 sequence (P15328 25-234)": "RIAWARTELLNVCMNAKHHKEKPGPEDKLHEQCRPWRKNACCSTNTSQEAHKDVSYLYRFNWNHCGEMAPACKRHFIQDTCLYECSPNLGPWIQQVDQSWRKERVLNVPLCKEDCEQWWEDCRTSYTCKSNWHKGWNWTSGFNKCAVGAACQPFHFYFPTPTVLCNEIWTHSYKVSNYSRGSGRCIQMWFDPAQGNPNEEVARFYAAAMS", "conditions": "KB-31 cells, 3H-folic acid; cited from earlier work"}, "[6]": {"tested_on": "porcine renal LLCPK-1 cells stably expressing GFP-tagged α-tubulin", "assay": "microtubule dynamics in living cells (plus ends of GFP-tagged α-tubulin MTs)", "assay_type": "cell-based", "conditions": "for Rate, Growing: individual microtubules in interphase cells", "method": "FIG. 6 is a series of photographs showing how Targetin increases the pause-time of cellular MTs. A gallery of video frames, 6 seconds apart, of plus ends of several microtubules in control and Targetin treated cells.\nTo determine if Targetin affects MT dynamics in living cells, the life history of the plus ends of Targetin-treated cellular MTs was evaluated, resolvable individually at the cell periphery of porcine renal LLCPK-1 cells stably expressing green fluorescent protein (GFP)-tagged α-tubulin. These cells were treated either with Targetin in DMSO or DMSO alone. […] As expected in control cells, MTs alternated between phases of growth and shortening interrupted occasionally by a state of attenuated dynamic activity (pause), determined by noting the position of the plus ends over time. The control panels show different positions of MT plus ends in a 24 second time period (arrows represent fixed pixel position for reference)."}, "[7]": {"tested_on": "FR-α overexpressing cancer cells (SK-OV3 human ovarian carcinoma cells, U87 glioblastoma cells)", "assay": "cell viability using Trypan blue (adherent live cells), 48 hours", "assay_type": "cell-based", "method": "Live cells remain adherent and exclude Trypan blue (although a few late stage dying cells that remain adherent are Trypan blue-positive, and are not counted as live adherent). The numbers of adherent live cells are quantified in panels B and D respectively.\nAn equal number of two types of cells, (SK-OV3 human ovarian carcinoma cells and U87 glioblastoma cells) were plated in 15 tissue culture dishes. Plates were divided into five groups of triplicates.\nFIGS. 8A & B show phase images and quantification of cell viability using Trypan blue in SK-OV3 cells. FIGS. 8C & D show parallel data for human glioblastoma U87 cells. Data for two other FR-α cell lines are similar (not shown)."}, "tubulin [8]": {"tested_on": "tubulin", "assay": "tubulin-fluorescence quenching titration", "assay_type": "binding", "conditions": "10-100 μM, compared with parent noscapine", "method": "as §1, §2"}, "[9]": {"tested_on": "variety of cancer cell types with varying degrees of folate receptor expression", "assay": "sulforhodamine B cellular proliferation assay", "assay_type": "cell-based", "conditions": "irrespective of folate receptor status", "method": "Our next goal was to determine whether differences in folate receptor overexpression affected cytotoxicity in response to Targetin. To this end, the ability of Targetin to inhibit cellular proliferation of a variety of cancer cell types with varying degrees of folate receptor expression was evaluated using a sulforhodamine B assay to determine total protein content (FIG. 7)."}}}
{"compound": "COc1ccc2c(c1OC)C(=O)O[C@@H]2[C@H]1c2c(cc3c(c2OC)OCO3)CCN1C", "note": "[Noscapine]", "values": [{"measurement": "apparent stoichiometry of binding to tubulin", "setting": "tubulin [1]", "value": "0.95±0.02 noscapine molecule per tubulin dimer subunit"}, {"measurement": "effect on tubulin polymerization", "setting": "tubulin [2]", "value": "did not inhibit tubulin polymerization"}, {"measurement": "effect on cell cycle and cell death", "setting": "[3]", "value": "brief mitotic pause followed by extensive apoptosis"}, {"measurement": "drug bioavailability on doubling the oral dose", "setting": "[4]", "value": "did not increase"}, {"measurement": "MT dynamics (position of plus ends)", "setting": "[5]", "value": "suppressed MT dynamics"}]}
{"compound": "Nc1nc(O)c2nc(CNc3ccc(C(=O)N[C@@H](CCC(=O)O)C(=O)O)cc3)cnc2n1", "note": "[folic acid]", "values": [{"measurement": "in vitro binding affinity", "setting": "folate receptor", "value": 41, "unit": "nmol/L"}]}
{"compound": "Noscapine-folate [Targetin]", "values": [{"measurement": "effect on tubulin polymerization", "setting": "tubulin [2]", "value": "did not inhibit tubulin polymerization"}, {"measurement": "inhibition of the rate and extent of tubulin polymerization", "setting": "tubulin [2]; 100 μM", "value": "~17", "unit": "%"}, {"measurement": "Average pause", "setting": "[6]; Targetin 5 μM", "value": "10.25 ± 1.25", "unit": "s"}, {"measurement": "Dynamicity", "setting": "[6]; Targetin 5 μM", "value": "4.52 ± 1.21", "unit": "μm/min"}, {"measurement": "Percent of total time, Attenuation", "setting": "[6]; Targetin 5 μM", "value": 32.5, "unit": "%"}, {"measurement": "Percent of total time, Growing", "setting": "[6]; Targetin 5 μM", "value": 35.2, "unit": "%"}, {"measurement": "Percent of total time, Shortening", "setting": "[6]; Targetin 5 μM", "value": 28.5, "unit": "%"}, {"measurement": "Rate, Shortening", "setting": "[6]; Targetin 5 μM", "value": "11.78 ± 1.21", "unit": "μm/min"}, {"measurement": "Transition frequency, Catastrophe", "setting": "[6]; Targetin 5 μM", "value": "0.079 ± 0.07", "unit": "s⁻¹"}, {"measurement": "Transition frequency, Rescue", "setting": "[6]; Targetin 5 μM", "value": "0.07 ± 0.012", "unit": "s⁻¹"}, {"measurement": "Rate, Growing", "setting": "[6]; Targetin 5 μM", "value": "8.72 ± 1.32", "unit": "μm/min"}, {"measurement": "Average pause", "setting": "[6]; Targetin 10 μM", "value": "14.52 ± 2.36", "unit": "s"}, {"measurement": "Dynamicity", "setting": "[6]; Targetin 10 μM", "value": "2.75 ± 1.05", "unit": "μm/min"}, {"measurement": "Percent of total time, Attenuation", "setting": "[6]; Targetin 10 μM", "value": 44.8, "unit": "%"}, {"measurement": "Percent of total time, Growing", "setting": "[6]; Targetin 10 μM", "value": 24.3, "unit": "%"}, {"measurement": "Percent of total time, Shortening", "setting": "[6]; Targetin 10 μM", "value": 20.1, "unit": "%"}, {"measurement": "Rate, Shortening", "setting": "[6]; Targetin 10 μM", "value": "9.92 ± 1.25", "unit": "μm/min"}, {"measurement": "Transition frequency, Catastrophe", "setting": "[6]; Targetin 10 μM", "value": "0.072 ± 0.05", "unit": "s⁻¹"}, {"measurement": "Transition frequency, Rescue", "setting": "[6]; Targetin 10 μM", "value": "0.059 ± 0.019", "unit": "s⁻¹"}, {"measurement": "Rate, Growing", "setting": "[6]; Targetin 10 μM", "value": "7.15 ± 0.56", "unit": "μm/min"}, {"measurement": "MT-binding and MT dynamics attenuating activity relative to noscapine", "setting": "[6]; summary statement", "value": "~3", "unit": "fold"}, {"measurement": "effectiveness compared with noscapine (adherent live cells)", "setting": "[7]; 10 μM Targetin vs 25 μM noscapine, FR-α overexpressing cell lines", "value": "significantly more effective than noscapine"}, {"measurement": "effect of free folic acid on Targetin toxicity", "setting": "[7]; 50 μM folic acid + 10 μM Targetin, FR-α overexpressing cancer cells", "value": "free folic acid mitigates the Targetin toxicity"}, {"measurement": "tubulin binding activity (quenching of tubulin fluorescence)", "setting": "tubulin [8]", "value": "does retain the tubulin binding activity"}, {"measurement": "potency in inhibiting cellular proliferation relative to noscapine", "setting": "[9]", "value": "about 3 fold"}]}
